1 molecule from article PMC3364022 (Journal of the American Chemical Society, 2011) can be followed below.

Where a SMILES comes first, the peptide text is derived from it. [ ]: non-standard residue; d: D form. β3hW = N[C@H](CC(=O)O)Cc1c[nH]c2ccccc12; β3hY = N[C@H](CC(=O)O)Cc1ccc(O)cc1; β3hR = N=C(N)NCCC[C@H](N)CC(=O)O; β3hF = N[C@H](CC(=O)O)Cc1ccccc1; β3hQ = NC(=O)CC[C@H](N)CC(=O)O; βAla = NCCC(=O)O

In the experiment the target is Bcl-xL (Homo sapiens, UniProt Q07817). Kind of experiment: Competition fluorescence polarization. It is filed as binding. The note with it: competition FP Ki, relative to α-peptide 1. A general note: Fluorescence polarisation rises when a labelled molecule tumbles more slowly, as on binding a larger partner.
Chain of Bcl-xL (Q07817 whole entry): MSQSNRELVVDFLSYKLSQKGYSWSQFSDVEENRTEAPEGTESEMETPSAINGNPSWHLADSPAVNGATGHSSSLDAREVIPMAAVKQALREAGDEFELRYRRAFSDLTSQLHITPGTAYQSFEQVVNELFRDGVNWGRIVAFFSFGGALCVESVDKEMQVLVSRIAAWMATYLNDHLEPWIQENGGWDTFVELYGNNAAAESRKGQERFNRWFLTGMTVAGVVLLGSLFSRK

In the case of `CC[C@H](C)[C@H](NC(C)=O)C(=O)N[C@H](CC(=O)N[C@H](C(=O)N[C@@H](C)C(=O)N[C@@H](CCC(N)=O)CC(=O)N[C@@H](CCC(=O)O)C(=O)N[C@@H](CC(C)C)C(=O)N[C@@H](CCCNC(=N)N)CC(=O)N[C@@H](CCCNC(=N)N)C(=O)N[C@H](C(=O)NCCC(=O)N[C@@H](CC(=O)O)C(=O)N[C@@H](CCC(=O)O)C(=O)N[C@H](CC(=O)N[C@@H](CC(N)=O)C(=O)N[C@@H](C)C(=O)N[C@H](CC(=O)N[C@@H](Cc1ccc(O)cc1)C(N)=O)Cc1ccc(O)cc1)Cc1ccccc1)[C@@H](C)CC)[C@@H](C)CC)Cc1c[nH]c2ccccc12` [3c] (Ac-I[β3hW]IA[β3hQ]EL[β3hR]RI[βAla]DE[β3hF]NA[β3hY]Y-NH2), the “Affinity for Bcl-xL, fold weaker than observed for 1” value was found to be 23 fold.
